Key:
[1] = Single administration: feed intake in DIO mice; assay type: in vivo, Mouse, C57BL/6J-DIO; design: unit not given here
Method: (§1) The pharmacological effect of the fusion polypeptides produced and purified in Example 1 above was tested in mice (C57BL/6J, 6-week-old, male, 100 mice; Raonbio).
(§2) In the present example, DI0 mouse model (Mouse, C57BL/6J-DIO, male, 100 mice, 14-week-old (obesity feed feeding for 8 weeks)) in which obesity was induced by feeding a high-fat diet into the C57BL/6J mice for 8 weeks was used.
(§3) The administration of the test substances HT-ID1-GDF15, HT-ID2-GDF15, and HT-ID3-GDF15 and the control substance Semaglutide (Bachem) was conducted from the next day after group separation, and the administration time was performed at 9 AM every day. Subcutaneous administration was conducted for all the control substance and test substances. For the administration route of the control substance and test substances, subcutaneous administration was selected depending on the clinically scheduled administration route.
(§4) For all the control substance and test substances, the amount of the administration solution was set to 5 mL/kg and the administration liquid by individual was calculated on the basis of the recently measured body weight and it was administered by subcutaneous injection once on the start day of the test using a disposable syringe (1 mL). The test substances were administered only once. For comparison, the control group in which the control substance Semaglutide was administered was prepared, and the comparison group in which Semaglutide was administered was administered once a day, and all the administration was progressed from 9 AM.
(§5) In addition, after administering the test substances into mice, the daily feed intake was measured, and the feeding amount was measured using an electronic scale for each breeding box, and the remaining amount was measured to calculate the daily feed intake. In case of an individual that gnawed heavily on heed, it was excluded from the measurement.
(§6) All the experimental results obtained in the present example were expressed as mean±standard error and tested using Prism5 (version 5.01). One-way analysis of variance (ANOVA) was performed on all data, and when significance was observed, Dunnett's test was performed to find out the test groups with a significant difference from the control group (significance level: two-sided 5% and 1%, 0.1%).

[2] = Repeated administration: body weight change in DIO mice; assay type: in vivo, Mouse, C57BL/6J-DIO
Method: The body weight of each mouse was measured on the day of the start of administration of the test substances (before administration), and thereafter, the body weight was measured every day ([…]), and the amount of the administration solution of the test substances was determined on the basis of the most recently measured body weight.
as §6
(§7) Except for the administration dose, animal number and administration cycle, most of the test processes were the same as in Example 2.1.1 above.
(§8) The test substances were administered twice a week (Days 0, 4, 7, 11, 14, 18, 21, 25) for a total of 8 times. For comparison, the control group in which the control substance Semaglutide was administered every day was prepared, and the comparison group in which Semaglutide was administered every day was administered once a day daily, and all the administration was progressed from 9 AM.

[3] = Repeated administration: feed intake in DIO mice; assay type: in vivo, Mouse, C57BL/6J-DIO; design: unit not given here
Method: as §5, §6, §7, §8

[4] = Single administration: body weight change in DIO mice; assay type: in vivo, Mouse, C57BL/6J-DIO; conditions: for Body Weight (Group, % of initial): daily s.c. injection, mean
Method: as §1, §2, §3, §4
As for the observation, measurement and test schedule for the test groups, the administration start date was set to Day 0, and 7 days from the administration start date were set to one week of administration.
The body weight of each mouse was measured on the day of the start of administration of the test substances (before administration), and thereafter, the body weight was measured every day (measured up to 9 days), and the amount of the administration solution of the test substances was determined on the basis of the most recently measured body weight.
as §6

[5] = Pharmacokinetic test, subcutaneous administration to SD rats (serum ELISA, Human GDF15 Immunoassay); assay type: in vivo; conditions: 2 mg/kg subcutaneous
Method: For evaluation of pharmacokinetic characteristics when each fusion polypeptide was subcutaneously administered to rats, the fusion polypeptides HT-ID1-GDF15, HT-ID2-GDF15 and HT-ID3-GDF15 were subcutaneously administered into SD rats (Koatech, male, 7-week-old, about 250 g; n=3 each; test group) in an amount of 2 mg/kg, respectively, and about 200 μl of blood was collected through the caudal vein at a predetermined time. The blood collection time was performed before administration, and 1, 2, 4, 8, 24, 48, 72, 96, 168, 240 and 336 hours after administration. As the control group for comparison of pharmacokinetic characteristics, GDF15 (R&D Systems) was subcutaneously administered in an amount of 2 mg/kg by the same method to prepare a GDF15 administration group.
After administering into SD Rats as above, blood collected by time-point was centrifuged to obtain serum, and ELISA was performed using Human GDF15 Immunoassay (SGD150, R&D Systems), and the concentration in the serum was measured depending on the time of each polypeptide.

In the case of Semaglutide [reference compound], the “Feed intake, Mean” value ([1]; Day 0, 3 nmol/kg Daily Inj.) is reported as 3.7, the “Feed intake, Mean” value ([1]; Day 1, 3 nmol/kg Daily Inj.) is reported as 2.1 and the “Feed intake, Mean” value ([1]; Day 2, 3 nmol/kg Daily Inj.) is reported as 3.3. For the same substance, the “Feed intake, Mean” value ([1]; Day 3, 3 nmol/kg Daily Inj.) was 2.8, the “Feed intake, Mean” value ([1]; Day 4, 3 nmol/kg Daily Inj.) was 2.3 and the “Feed intake, Mean” value ([1]; Day 5, 3 nmol/kg Daily Inj.) was 2.9. For the same substance, the “Feed intake, Mean” value ([1]; Day 6, 3 nmol/kg Daily Inj.) was 2.7, the “Feed intake, Mean” value ([1]; Day 7, 3 nmol/kg Daily Inj.) was 3.2 and the “Feed intake, Mean” value ([1]; Day 8, 3 nmol/kg Daily Inj.) was 2.4. The “Feed intake, Mean” value ([1]; Day 9, 3 nmol/kg Daily Inj.) was 3.7, the “Body Weight, Mean” value ([2]; Day 0, 3 nmol/kg once a day) was 100.0 % of initial and the “Body Weight, Mean” value ([2]; Day 1, 3 nmol/kg once a day) was 93.9 % of initial. The “Body Weight, Mean” value ([2]; Day 2, 3 nmol/kg once a day) was 92.6 % of initial, the “Body Weight, Mean” value ([2]; Day 3, 3 nmol/kg once a day) was 90.4 % of initial and the “Body Weight, Mean” value ([2]; Day 4, 3 nmol/kg once a day) was 88.4 % of initial. For the same substance, the “Body Weight, Mean” value ([2]; Day 5, 3 nmol/kg once a day) was 66.2 % of initial, the “Body Weight, Mean” value ([2]; Day 6, 3 nmol/kg once a day) was 64.1 % of initial and the “Body Weight, Mean” value ([2]; Day 7, 3 nmol/kg once a day) was 82.6 % of initial. For the same substance, the “Body Weight, Mean” value ([2]; Day 8, 3 nmol/kg once a day) was 61.9 % of initial, the “Body Weight, Mean” value ([2]; Day 9, 3 nmol/kg once a day) was 80.7 % of initial and the “Body Weight, Mean” value ([2]; Day 10, 3 nmol/kg once a day) was 80.3 % of initial. The “Body Weight, Mean” value ([2]; Day 11, 3 nmol/kg once a day) was 80.3 % of initial, the “Body Weight, Mean” value ([2]; Day 12, 3 nmol/kg once a day) was 79.1 % of initial and the “Body Weight, Mean” value ([2]; Day 13, 3 nmol/kg once a day) was 76.8 % of initial. For the same substance, the “Body Weight, Mean” value ([2]; Day 14, 3 nmol/kg once a day) was 76.7 % of initial, the “Body Weight, Mean” value ([2]; Day 15, 3 nmol/kg once a day) was 78.1 % of initial and the “Body Weight, Mean” value ([2]; Day 16, 3 nmol/kg once a day) was 78.3 % of initial. For the same substance, the “Body Weight, Mean” value ([2]; Day 17, 3 nmol/kg once a day) was 77.2 % of initial, the “Body Weight, Mean” value ([2]; Day 18, 3 nmol/kg once a day) was 76.7 % of initial and the “Body Weight, Mean” value ([2]; Day 19, 3 nmol/kg once a day) was 77.1 % of initial. The “Body Weight, Mean” value ([2]; Day 20, 3 nmol/kg once a day) was 76.1 % of initial, the “Body Weight, Mean” value ([2]; Day 21, 3 nmol/kg once a day) was 76.8 % of initial and the “Body Weight, Mean” value ([2]; Day 22, 3 nmol/kg once a day) was 75.9 % of initial. The “Body Weight, Mean” value ([2]; Day 23, 3 nmol/kg once a day) was 75.6 % of initial, the “Body Weight, Mean” value ([2]; Day 24, 3 nmol/kg once a day) was 76.0 % of initial and the “Body Weight, Mean” value ([2]; Day 25, 3 nmol/kg once a day) was 76.3 % of initial. The “Body Weight, Mean” value ([2]; Day 26, 3 nmol/kg once a day) was 76.5 % of initial, the “Body Weight, Mean” value ([2]; Day 27, 3 nmol/kg once a day) was 76.2 % of initial and the “Body Weight, Mean” value ([2]; Day 28, 3 nmol/kg once a day) was 75.7 % of initial. For the same substance, the “Feed intake, Mean” value ([3]; Day 1, 3 nmol/kg once a day) was 2.9, the “Feed intake, Mean” value ([3]; Day 2, 3 nmol/kg once a day) was 0.7 and the “Feed intake, Mean” value ([3]; Day 3, 3 nmol/kg once a day) was 1.3. For the same substance, the “Feed intake, Mean” value ([3]; Day 4, 3 nmol/kg once a day) was 1.4, the “Feed intake, Mean” value ([3]; Day 5, 3 nmol/kg once a day) was 1.7 and the “Feed intake, Mean” value ([3]; Day 6, 3 nmol/kg once a day) was 1.5. For the same substance, the “Feed intake, Mean” value ([3]; Day 7, 3 nmol/kg once a day) was 1.6, the “Feed intake, Mean” value ([3]; Day 8, 3 nmol/kg once a day) was 1.9 and the “Feed intake, Mean” value ([3]; Day 9, 3 nmol/kg once a day) was 2.0. The “Feed intake, Mean” value ([3]; Day 10, 3 nmol/kg once a day) was 2.3, the “Feed intake, Mean” value ([3]; Day 11, 3 nmol/kg once a day) was 2.2 and the “Feed intake, Mean” value ([3]; Day 12, 3 nmol/kg once a day) was 3.2. For the same substance, the “Feed intake, Mean” value ([3]; Day 13, 3 nmol/kg once a day) was 2.2, the “Feed intake, Mean” value ([3]; Day 14, 3 nmol/kg once a day) was 2.5 and the “Feed intake, Mean” value ([3]; Day 15, 3 nmol/kg once a day) was 2.5. For the same substance, the “Feed intake, Mean” value ([3]; Day 16, 3 nmol/kg once a day) was 2.2, the “Feed intake, Mean” value ([3]; Day 17, 3 nmol/kg once a day) was 2.4 and the “Feed intake, Mean” value ([3]; Day 18, 3 nmol/kg once a day) was 2.2. For the same substance, the “Feed intake, Mean” value ([3]; Day 19, 3 nmol/kg once a day) was 2.6, the “Feed intake, Mean” value ([3]; Day 20, 3 nmol/kg once a day) was 2.6 and the “Feed intake, Mean” value ([3]; Day 21, 3 nmol/kg once a day) was 2.5. The “Feed intake, Mean” value ([3]; Day 22, 3 nmol/kg once a day) was 2.9, the “Feed intake, Mean” value ([3]; Day 23, 3 nmol/kg once a day) was 2.0 and the “Feed intake, Mean” value ([3]; Day 24, 3 nmol/kg once a day) was 2.4. For the same substance, the “Feed intake, Mean” value ([3]; Day 25, 3 nmol/kg once a day) was 2.9, the “Feed intake, Mean” value ([3]; Day 26, 3 nmol/kg once a day) was 2.4 and the “Feed intake, Mean” value ([3]; Day 27, 3 nmol/kg once a day) was 2.4. For the same substance, the “Feed intake, Mean” value ([3]; Day 28, 3 nmol/kg once a day) was 2.7, the “body weight loss effect” value ([4]; 3 nmol/kg daily s.c. administration) was “body weight loss effect was continuously shown from Day 1 after administration” and the “Body Weight (Group, % of initial)” value ([4]; Day 0, 3 nmol/kg) was 100 % of initial. For the same substance, the “Body Weight (Group, % of initial)” value ([4]; Day 1, 3 nmol/kg) was 94 % of initial, the “Body Weight (Group, % of initial)” value ([4]; Day 2, 3 nmol/kg) was 91 % of initial and the “Body Weight (Group, % of initial)” value ([4]; Day 3, 3 nmol/kg) was 90 % of initial. For the same substance, the “Body Weight (Group, % of initial)” value ([4]; Day 4, 3 nmol/kg) was 87 % of initial, the “Body Weight (Group, % of initial)” value ([4]; Day 5, 3 nmol/kg) was 87 % of initial and the “Body Weight (Group, % of initial)” value ([4]; Day 6, 3 nmol/kg) was 85 % of initial. The “Body Weight (Group, % of initial)” value ([4]; Day 7, 3 nmol/kg) was 86 % of initial, the “Body Weight (Group, % of initial)” value ([4]; Day 8, 3 nmol/kg) was 83 % of initial and the “Body Weight (Group, % of initial)” value ([4]; Day 9, 3 nmol/kg) was 85 % of initial.

In the case of “rhGDF15: GDF15 (R&D Systems), not fused, control group for comparison of pharmacokinetic characteristics”, the half-life [5] is reported as 19 h, the “AUCextp (%) [(AUCinf − AUClast)/AUCinf]*100” value ([5]; serum) is reported as 0.463% and the AUClast ([5]; serum) is reported as 4860 ng·h/mL. The “Cmax (maximum concentration in blood)” value ([5]; serum) was 443 ng/mL, the “Tmax (reaching time to maximum concentration in blood)” value ([5]; serum) was 1 h and the “t1/2 (loss half-life)” value ([5]; serum) was 19.0 h. For the same substance, the AUCinf ([5]; serum, extrapolated to infinity) was 4880 ng·h/mL.

— US20230133672A1, “FUSION POLYPEPTIDE COMPRISING GDF15 AND POLYPEPTIDE REGION CAPABLE OF O-GLYCOSYLATION” (LG CHEM, LTD., priority 2019, published 2023)
